The results in this text go back to PubChem BioAssay AID1286 (University of Pittsburgh Molecular Library Screening Center, 2008).

Structures are written as SMILES. Results filed as inconclusive are left out. Activity calls are given as the source filed them. No rule for the calls is given here.

By inhibition is commonly meant the drop in the measured response relative to a control, in per cent.

The target of the test is Serine/threonine-protein kinase D1 (Homo sapiens) (UniProt Q15139). The test can be described thus: protein kinase D1 activity blockers – biochemical, fluorescence polarization, 140K library hits, repeat, confirmation (AID 1286). To be noted: PKD1 kinase, at 10 µM, active compounds read high. (Fluorescence polarisation rises when a labelled molecule tumbles more slowly, as on binding a larger partner.)
Chain of Serine/threonine-protein kinase D1 (Homo sapiens) (Q15139 whole entry, looked up): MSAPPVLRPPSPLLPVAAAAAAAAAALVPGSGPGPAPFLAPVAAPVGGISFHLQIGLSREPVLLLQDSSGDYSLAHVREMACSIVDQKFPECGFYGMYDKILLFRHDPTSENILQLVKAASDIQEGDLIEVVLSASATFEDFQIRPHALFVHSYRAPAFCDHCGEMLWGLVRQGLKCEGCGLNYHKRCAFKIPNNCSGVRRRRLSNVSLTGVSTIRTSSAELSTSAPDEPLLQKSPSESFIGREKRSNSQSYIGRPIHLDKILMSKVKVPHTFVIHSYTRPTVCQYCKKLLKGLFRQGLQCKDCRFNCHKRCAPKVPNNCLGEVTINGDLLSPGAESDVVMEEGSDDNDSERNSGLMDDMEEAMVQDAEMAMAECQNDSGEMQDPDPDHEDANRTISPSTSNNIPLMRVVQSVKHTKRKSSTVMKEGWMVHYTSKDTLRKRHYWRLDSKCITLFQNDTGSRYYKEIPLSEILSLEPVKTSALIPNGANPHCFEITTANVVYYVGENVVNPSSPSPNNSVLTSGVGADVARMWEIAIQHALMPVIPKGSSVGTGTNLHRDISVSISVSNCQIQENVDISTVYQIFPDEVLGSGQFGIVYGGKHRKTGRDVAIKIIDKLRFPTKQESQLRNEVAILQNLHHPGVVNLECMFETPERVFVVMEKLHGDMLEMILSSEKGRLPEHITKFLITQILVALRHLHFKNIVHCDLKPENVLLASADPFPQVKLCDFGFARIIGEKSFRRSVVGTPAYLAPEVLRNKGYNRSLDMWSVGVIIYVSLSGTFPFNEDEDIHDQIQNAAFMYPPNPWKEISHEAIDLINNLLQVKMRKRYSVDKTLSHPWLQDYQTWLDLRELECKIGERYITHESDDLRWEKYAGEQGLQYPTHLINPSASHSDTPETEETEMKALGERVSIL
Regarding `Cn1c(=O)oc2cc(S(=O)(=O)N3CCN(Cc4ccc5c(c4)OCO5)CC3)ccc21`, the inhibition is -1.91% (inactive).
Consider `CC(=O)Nc1ccc2c(c1)c1ccccc1n2C(C)=O`, for which the inhibition was 14.5% (inactive).
Turning to `O=C1CC(N2CCN(c3ccccc3Cl)CC2)C(=O)N1c1ccc(F)cc1` (stereo unspecified), the inhibition is -3.22% (inactive).
The value for `COC(=O)c1cccc2c1-c1ccccc1/C2=N/O` was 19.8% (inactive).
For `COc1ccc2nc3sc(C(=O)NCCCN4CCc5ccccc5C4)cc3cc2c1`, the inhibition was 7.3% (inactive).
In the case of `Cc1c(N/N=C(\C#N)C(=O)c2ccc(Cl)cc2)c(=O)n(-c2ccccc2)n1C`, the inhibition is 18% (inactive).
The same measure for `CC1CCCC(C)N1C(=O)Cn1cc(/C=C2/C(=O)Nc3ccccc32)c2ccccc21` (stereo unspecified): 2.88% (inactive).
Take `Cc1cc(NCCCN)nc(-c2ccccc2O)n1`: the inhibition is 59.5%.
For `O=C(Nc1ccccc1Cl)ON=C1c2ccccc2-c2ccccc21`, the inhibition is 14.4% (inactive).
The value for `Cc1ccc(C(=O)NNC2=Nc3cccc4cccc2c34)cc1` was 6.45% (inactive).
In the case of `NC(=O)c1cn(C2OC(CO)C(O)C2O)c2ncnc(N)c12` (stereo unspecified), the inhibition is 90.3%.
The value for `Cc1occc1C(=O)NC(C)CCc1ccccc1` (stereo unspecified) was -0.529% (inactive); that for `COc1ccccc1/C=C1\SC(=S)N(CCC(=O)NC2=NCCS2)C1=O` was -0.701% (inactive); that for `Cc1nn(C)c(C)c1N1C(=O)c2cccc3c(N)ccc(c23)C1=O` was 46.3% (inactive).
The same measure for `Cc1ccc(C(=O)Cn2c(NCCO)nc3ccccc32)cc1`: -5.32% (inactive).
For the molecule `COc1ccccc1C(=O)NN1C(=O)C2C3C=CC(O3)C2C1=O` (stereo unspecified), the inhibition was -0.477% (inactive).
In the case of `CCOC(=O)N1CCN(c2cc(NCCC(=O)O)c3c4c(onc24)-c2ccccc2C3=O)CC1`, the inhibition is 3.06% (inactive).
The same measure for `c1ccc(-c2n[nH]c3ccccc23)cc1`: 11.3% (inactive); for `O=C(Nc1ccccc1)ON=C1c2ccccc2-c2ccccc21`: 17.2% (inactive).
The same measure for `O=C(CN1CCCC1)Nc1c2c(nc3ccccc13)N(Cc1ccccc1)CC2`: -4.44% (inactive).
The same measure for `Cc1cc(N=CC2=C(O)CC(C)(C)CC2=O)no1`: -1.85% (inactive); for `Cc1cc(Nc2cccc(F)c2)nc(NCc2ccccc2)n1`: 1.99% (inactive).
Consider `CN(C)CCOc1ccc2c(c1)Sc1ccccc1CC2=O`, for which the inhibition was 8.37% (inactive).
In the case of `Cc1c(N/N=C(\C#N)C(=O)c2ccccc2)c(=O)n(-c2ccccc2)n1C`, the inhibition is 12.8% (inactive).
The same measure for `CCC(=O)Nc1c2c(nn1-c1ccccc1C)CSC2`: 58.1%; for `CS(=O)(=O)N1CCN(c2ccc(NC(=O)c3ccc(Br)o3)cc2)CC1`: -7.85% (inactive); for `CN(C)c1ccc(/C=C2\SC(=S)N(Nc3ncc(C(F)(F)F)cc3Cl)C2=O)cc1`: 4.05% (inactive).
For `CCC1=NNc2cccc3c(OC)ccc1c23`, the inhibition was 89.7%.
In the case of `Cn1c(=O)[nH]c(=O)c2c1nc(NC1CCCCC1)n2CC(=O)NC1CCCCC1`, the inhibition was -11.5% (inactive).
For `CCOC(=O)c1cccc(NC(=O)CCS(=O)(=O)c2cccc3nsnc23)c1`, the inhibition is 28.8% (inactive).
Turning to `CCn1c(CSc2ncccn2)nnc1SCC(=O)N1CCc2ccccc21`, the inhibition was -1.28% (inactive).
The value for `CCCNC(=O)CN(c1ccc(F)cc1)S(=O)(=O)c1ccc2c(c1)OCCO2` was -8.66% (inactive); that for `CCOC(=O)c1[nH]c2cc(OC)c(OC)cc2c1NC(=O)CN1CCN(C)CC1` was 3.12% (inactive).
For the molecule `Clc1ccc(Nc2ccc(-n3ccnc3)nn2)cc1Cl`, the inhibition was -1.8% (inactive).
On to `CC(=O)Oc1cc(OC(C)=O)c2c(C)cc(=O)oc2c1`, for which the inhibition was 68.1%.
For `Clc1cncc(Cl)c1N/N=C/c1ccncc1`, the inhibition was 77.4%.
The same measure for `O=C1CCCc2c1cc(C(=O)NCc1ccco1)c(=O)n2-c1ccccc1`: -5.46% (inactive).
For the molecule `Cc1[nH]nc2c1-c1nc3ccccc3nc1C(C)(C)C2`, the inhibition was 40% (inactive).
As to `NC(N)=NC(=O)c1nc(Cl)c(N)nc1N`, the inhibition was 58.6%.
For the molecule `COC(=O)c1ccccc1OCC(=O)NC1CCCCC1`, the inhibition was -3.26% (inactive).
On to `O=C1c2ccccc2-c2onc3ccc(NCc4ccco4)c1c23`, for which the inhibition was 32.1% (inactive).
Regarding `O=C1NCCCc2c1oc1ccc(O)cc21`, the inhibition is 96.2%.
The same measure for `CCOc1cccc(C2C(C(=O)c3ccc(C)o3)=C(O)C(=O)N2c2nccs2)c1` (stereo unspecified): 73.4%; for `CN1CCN(c2cccc3c2C(=O)c2ccccc2C3=O)CC1`: 34.4% (inactive).
The value for `Cc1c(C(=O)NCc2cccnc2)sc2nc(-c3ccc(F)cc3)cn12` was -3.04% (inactive); that for `O=C1CC(N2CCN(c3ccccc3Cl)CC2)C(=O)N1c1cccc(F)c1` (stereo unspecified) was -6.73% (inactive); that for `NC(=NCCc1c[nH]c2ccccc12)NS(=O)(=O)c1cc(F)ccc1F` was 2.31% (inactive).
On to `COc1ccc(Nc2cc(C)nc(-n3nc(C)cc3C)n2)cc1`, for which the inhibition is 3.67% (inactive).
Turning to `CS(=O)(=O)N1CCN(c2ccccc2NC(=O)c2ccc(Br)o2)CC1`, the inhibition is 96.2%.
On to `Nc1nc2ccc([N+](=O)[O-])c(N)c2s1`, for which the inhibition was 69.9%.
With `CCOC(=O)N1CCC(N2CCN(S(=O)(=O)CC)CC2)CC1`, the inhibition was -3.7% (inactive).
For `Cc1ccc(NC(=O)C2CCCN(S(=O)(=O)c3c(C)noc3C)C2)c(C)c1` (stereo unspecified), the inhibition is -2.05% (inactive).
As to `CC(C)CCN1CN(S(=O)(=O)c2cccs2)c2nc3ccccc3nc21`, the inhibition is -0.214% (inactive).
On to `CN1CCN(c2ccccc2NC(=O)c2ccc(-c3cccc([N+](=O)[O-])c3)o2)CC1`, for which the inhibition is 7.36% (inactive).
Take `COc1ccc(-c2cnnc(N/N=C/c3ccc(O)c(O)c3)n2)cc1`: the inhibition is 3.96% (inactive).
Take `O=C(c1cc(-c2ccccc2)nc2ccccc12)N1CCN(c2ccccn2)CC1`: the inhibition was 0.468% (inactive).
Regarding `CCN(CC)c1ccc(NC(=O)COc2ccccc2C#N)cc1S(=O)(=O)Nc1ccc(OC)cc1`, the inhibition is -2.22% (inactive).
As to `COc1ccc(S(=O)(=O)N2CCC(n3cnc4cc(C(F)(F)F)ccc43)CC2)cc1`, the inhibition was 20.8% (inactive).
In the case of `Cn1c(OCc2cccnc2)nc2c1c(=O)n(Cc1ccc(Br)cc1)c(=O)n2C`, the inhibition was -0.468% (inactive).
In the case of `CC(OC(=O)c1ccc(NS(=O)(=O)c2cccs2)cc1)C(=O)N(C)C1CCCCC1` (stereo unspecified), the inhibition was -4.35% (inactive).
In the case of `O=C(Nc1cccc([N+](=O)[O-])c1)C12CC3CC(C1)CC(n1cnc([N+](=O)[O-])n1)(C3)C2`, the inhibition is -4.73% (inactive).
The same measure for `Nc1nc2ccccc2n1/N=C/c1cccnc1`: 36.4% (inactive).
`O=C(NCCOC(=O)c1ccc(C(=O)OCCNC(=O)c2cccnc2)s1)c1cccnc1`: the inhibition is -5.26% (inactive).
`Cc1c(C(=O)N/N=C/c2ccc(O)c(Br)c2)sc(N)c1C#N`: the inhibition was 44.5% (inactive).
With `Cc1cc2nc3c(=O)n(C4CCCCC4)c(=O)[nH]c3nc2cc1N`, the inhibition was 21.6% (inactive).
On to `O=C(O)C1CCN(c2ncccn2)CC1`, for which the inhibition was -5.12% (inactive).
The same measure for `Nc1nnc(SCCCC(=O)c2ccc(F)cc2)s1`: 26.1% (inactive); for `C=CCn1c(SC(C)C(=O)NCc2ccc3c(c2)OCO3)nnc1C1CCCCC1` (stereo unspecified): -1.58% (inactive); for `COc1ccc(C2C(C(=O)c3cccs3)=C(O)C(=O)N2c2nncs2)cc1` (stereo unspecified): 35.1% (inactive).
Consider `CCCCn1c(=O)[nH]c2nc3cc(N)ccc3nc2c1=O`, for which the inhibition is 31.1% (inactive).
The same measure for `O=C(Nc1ccc(Cl)cc1)OCc1cn(-c2ccc(Cl)cc2)nn1`: -2.52% (inactive); for `CCOC(=O)N1CCC(NS(=O)(=O)c2cc(Br)cc3c2N(C(=O)CC)CC3)CC1`: -5.57% (inactive).
As for `COc1cc(C2=NOC(C(=O)NCc3ccco3)C2)cc(OC)c1OC` (stereo unspecified), the inhibition is -3.78% (inactive).
Take `O=C(Nc1ccsc1C(=O)NC1CC1)c1ccccc1`: the inhibition is 9.43% (inactive).
In the case of `Cc1ccc(NC(=O)CNc2ccc(Cl)cc2F)cc1`, the inhibition was 0.85% (inactive).
As to `O=C(Nc1ccc(CN2CCOCC2)cc1)c1ccc(-c2cccc(Cl)c2)o1`, the inhibition is 52.6%.
Consider `Cn1c(=O)c(NCCO)c2c3c(cccc31)C(=O)c1ccccc1-2`, for which the inhibition was 95.8%.
The same measure for `O=C1Nc2ccccc2/C1=C/c1cnc[nH]1`: 28.3% (inactive); for `Nc1nc2ccccc2n1/N=C/c1ccc([N+](=O)[O-])s1`: 34.7% (inactive); for `COCC(C)n1c(C)cc(C(=O)COC(=O)c2nc3nc(C)cc(C)n3n2)c1C` (stereo unspecified): -2.8% (inactive).
On to `COc1cc2c(cc1OC)-c1c(OC)c(OC)c(OC)c3ccnc(c13)C2=O`, for which the inhibition was 10.4% (inactive).
